Test: Dynamic PET imaging with [^18F]OXD-2314 in baboons
Assay type: in vivo
Details: for Cerebellum SUV / Cortex SUV / Striatum SUV / Whole Brain SUV: PET time-activity curve, Figure S18; for whole brain peak uptake: n = 1
Protocol: Dynamic PET imaging was performed in a rhesus macaque (macaca mulatta) monkey following the injection of [^18F]OXD-2314 at baseline (104.9 MBq, n = 1) and was repeated in a second [^18F]OXD-2314 study (115.8 MBq, n = 1) where a displacing dose of unlabeled OXD-2314 (0.5 mg/kg) was administered 10 min after [^18F]OXD-2314 injection to verify the absence of specific binding in NHP brain. Venous blood samples were drawn to characterize the metabolic fate of [^18F]OXD-2314 in the macaque. Dynamic [^18F]OXD-2314 PET imaging was also performed in a male (106.6 MBq, n = 1) and a female (115.8 MBq, n = 1) baboon (papio anubis), and venous blood samples were drawn in both baboons to characterize potential effects of sex on radiometabolism. Bilateral regions of interest were defined on 5–8 contiguous axial image planes for the lateral temporal cerebral cortex, cerebellum, striatum, and whole brain, which were used to sample dynamic [^18F]OXD-2314 PET images to determine the time-varying radioactivity concentration expressed in SUV units. [^18F]OXD-2314 readily entered macaque brain (whole brain peak ~2.2 SUV at ~2 min) and distributed uniformly throughout cortical and subcortical grey matter regions (Fig. 5A). […] Radiometabolite analysis of macaque venous blood identified only one, polar radiometabolite, which increased from 37% at 10 min to 77% at 90 min post-injection and was not likely brain penetrant (Figs. S19, S20).
The rate of uptake and clearance of [^18F]OXD-2314 in the brains of a male and a female baboon were compared (Fig. 6A). Initial whole brain uptake was rapid in both baboons, with peak uptake achieved in ~2 min with an SUV of ~2.8 in the male baboon and an SUV of ~1.9 in the female baboon. […] It is not known whether the higher initial brain uptake of [^18F]OXD-2314 observed in a male baboon is due to sex differences, normal physiologic variability, or the additional variability introduced by the effects of anesthesia. No evidence of elevated uptake or retention in the baboon striatum following [^18F]OXD-2314 injection was observed (Fig. S16), a region where high levels of PSP and CBD pathology are expected. Therefore, the normal brain retention patterns of [^18F]OXD-2314 are unlikely to confound the detection of specific signal from PSP and CBD pathology in human subjects.
NHP imaging studies in a male (13 kg) macaca mulata monkey and male (25.7 kg) and female (14.2 kg) papio anubis baboons were carried out in accordance with the guidelines set forth by the Institutional Animal Care and Use Committee at the University of Pittsburgh. Additional details regarding the maintenance of an active environmental enrichment program for the housed NHPs are described in Supplemental Information. Dynamic [^18F]OXD-2314 PET imaging of the brains of the isoflurane anesthetized NHPs was performed using a Siemens Biograph mCT Flow 64-4 R PET/CT scanner ([…], maximum intrinsic spatial resolution of 4.3 mm FWHM[53]. Following a low-dose CT scan for attenuation correction of PET emission data, [^18F]OXD-2314 was injected intravenously and emission data were acquired in list-mode for a period of 90 min. Emission data were binned into a dynamic series of 32 frames (20 sec-10 min) and reconstructed using filtered back projection with Fourier rebinning (FORE + FBP) with standard corrections applied that included attenuation, scatter, electronics dead-time, and physical decay.

SMILES: CO[C@H]1CCCN(c2ccc(-c3cc4cc(O)ccc4[nH]3)c([18F])n2)C1 [[^18F]OXD-2314]
- Cerebellum SUV (Time 2.75 min): 3.523 SUV
- Cortex SUV (Time 2.75 min): 3.036 SUV
- Striatum SUV (Time 2.75 min): 3.616 SUV
- Whole Brain SUV (Time 2.75 min): 2.828 SUV
- Cerebellum SUV (Time 3.25 min): 3.2566 SUV
- Cortex SUV (Time 3.25 min): 2.891 SUV
- Striatum SUV (Time 3.25 min): 3.337 SUV
- Whole Brain SUV (Time 3.25 min): 2.7269 SUV
- Cerebellum SUV (Time 3.75 min): 3.5333 SUV
- Cortex SUV (Time 3.75 min): 2.848 SUV
- Striatum SUV (Time 3.75 min): 3.315 SUV
- Whole Brain SUV (Time 3.75 min): 2.707 SUV
- Cerebellum SUV (Time 4.5 min): 3.317 SUV
- Cortex SUV (Time 4.5 min): 2.817 SUV
- Striatum SUV (Time 4.5 min): 3.072 SUV
- Whole Brain SUV (Time 4.5 min): 2.623 SUV
- Cerebellum SUV (Time 5.5 min): 2.973 SUV
- Cortex SUV (Time 5.5 min): 2.612 SUV
- Striatum SUV (Time 5.5 min): 3.02 SUV
- Whole Brain SUV (Time 5.5 min): 2.516 SUV
- Cerebellum SUV (Time 6.5 min): 2.884 SUV
- Cortex SUV (Time 6.5 min): 2.534 SUV
- Striatum SUV (Time 6.5 min): 2.784 SUV
- Whole Brain SUV (Time 6.5 min): 2.429 SUV
- Cerebellum SUV (Time 8 min): 2.424 SUV
- Cortex SUV (Time 8 min): 2.368 SUV
- Striatum SUV (Time 8 min): 2.423 SUV
- Whole Brain SUV (Time 8 min): 2.257 SUV
- Cerebellum SUV (Time 10 min): 2.417 SUV
- Cortex SUV (Time 10 min): 2.197 SUV
- Striatum SUV (Time 10 min): 2.581 SUV
- Whole Brain SUV (Time 10 min): 2.094 SUV
- Cerebellum SUV (Time 12 min): 2.068 SUV
- Cortex SUV (Time 12 min): 2.057 SUV
- Striatum SUV (Time 12 min): 2.198 SUV
- Whole Brain SUV (Time 12 min): 1.998 SUV
- Cerebellum SUV (Time 14 min): 2.062 SUV
- Cortex SUV (Time 14 min): 1.889 SUV
- Striatum SUV (Time 14 min): 1.943 SUV
- Whole Brain SUV (Time 14 min): 1.8928 SUV
- Cerebellum SUV (Time 17.5 min): 1.827 SUV
- Cortex SUV (Time 17.5 min): 1.768 SUV
- Striatum SUV (Time 17.5 min): 1.893 SUV
- Whole Brain SUV (Time 17.5 min): 1.748 SUV
- Cerebellum SUV (Time 22.5 min): 1.519 SUV
- Cortex SUV (Time 22.5 min): 1.5637 SUV
- Striatum SUV (Time 22.5 min): 1.618 SUV
- Whole Brain SUV (Time 22.5 min): 1.572 SUV
- Cerebellum SUV (Time 27.5 min): 1.345 SUV
- Cortex SUV (Time 27.5 min): 1.403 SUV
- Striatum SUV (Time 27.5 min): 1.574 SUV
- Whole Brain SUV (Time 27.5 min): 1.421 SUV
- Cerebellum SUV (Time 32.5 min): 1.261 SUV
- Cortex SUV (Time 32.5 min): 1.245 SUV
- Striatum SUV (Time 32.5 min): 1.235 SUV
- Whole Brain SUV (Time 32.5 min): 1.295 SUV
- Cerebellum SUV (Time 37.5 min): 1.135 SUV
- Cortex SUV (Time 37.5 min): 1.17 SUV
- Striatum SUV (Time 37.5 min): 1.248 SUV
- Whole Brain SUV (Time 37.5 min): 1.205 SUV
- Cerebellum SUV (Time 42.5 min): 1.059 SUV
- Cortex SUV (Time 42.5 min): 1.067 SUV
- Striatum SUV (Time 42.5 min): 1.112 SUV
- Whole Brain SUV (Time 42.5 min): 1.107 SUV
- Cerebellum SUV (Time 47.5 min): 1.003 SUV
- Cortex SUV (Time 47.5 min): 0.9766 SUV
- Striatum SUV (Time 47.5 min): 0.9755 SUV
- Whole Brain SUV (Time 47.5 min): 1.028 SUV
- Cerebellum SUV (Time 52.5 min): 0.8116 SUV
- Cortex SUV (Time 52.5 min): 0.9384 SUV
- Striatum SUV (Time 52.5 min): 0.9527 SUV
- Whole Brain SUV (Time 52.5 min): 0.9734 SUV
- Cerebellum SUV (Time 57.5 min): 0.7605 SUV
- Cortex SUV (Time 57.5 min): 0.8664 SUV
- Striatum SUV (Time 57.5 min): 0.8933 SUV
- Whole Brain SUV (Time 57.5 min): 0.9139 SUV
- Cerebellum SUV (Time 62.5 min): 0.7211 SUV
- Cortex SUV (Time 62.5 min): 0.8233 SUV
- Striatum SUV (Time 62.5 min): 0.8081 SUV
- Whole Brain SUV (Time 62.5 min): 0.8807 SUV
- Cerebellum SUV (Time 67.5 min): 0.724 SUV
- Cortex SUV (Time 67.5 min): 0.803 SUV
- Striatum SUV (Time 67.5 min): 0.7461 SUV
- Whole Brain SUV (Time 67.5 min): 0.8223 SUV
- Cerebellum SUV (Time 72.5 min): 0.6837 SUV
- Cortex SUV (Time 72.5 min): 0.7452 SUV
- Striatum SUV (Time 72.5 min): 0.6547 SUV
- Whole Brain SUV (Time 72.5 min): 0.7875 SUV
- Cerebellum SUV (Time 77.5 min): 0.6351 SUV
- Cortex SUV (Time 77.5 min): 0.7071 SUV
- Striatum SUV (Time 77.5 min): 0.5968 SUV
- Whole Brain SUV (Time 77.5 min): 0.7547 SUV
- Cerebellum SUV (Time 82.5 min): 0.6873 SUV
- Cortex SUV (Time 82.5 min): 0.6833 SUV
- Striatum SUV (Time 82.5 min): 0.7378 SUV
- Whole Brain SUV (Time 82.5 min): 0.7187 SUV
- Cerebellum SUV (Time 87.5 min): 0.5841 SUV
- Cortex SUV (Time 87.5 min): 0.6805 SUV
- Striatum SUV (Time 87.5 min): 0.6765 SUV
- Whole Brain SUV (Time 87.5 min): 0.6934 SUV
- time to peak whole brain uptake (both baboons): ~ 2 min
- 2:90 min SUV ratio (female baboon): ~ 3.6
- whole brain peak uptake (female baboon): ~ 1.9 SUV
- 2:90 min SUV ratio (male baboon): ~ 3.7
- whole brain peak uptake (male baboon): ~ 2.8 SUV
